Data taken from the supplement of paper PMC10307832.

Assays:
XMD8-85 = compound: CN1CCN(CC1)C2=CC(=C(C=C2)NC3=NC=C4C(=N3)N(C5=CC=CC=C5C(=O)N4C)C)OC [XMD8-85]; test: relative viability (nuclei count vs DMSO), 5 days (fraction); higher = more cells survive
In short: (§1)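 A plate was accepted only when its control CV was below 25% and the cells had doubled at least once. Viability is defined from nuclear counts as treated wells divided by vehicle wells, with the median taken across plates. That median covers lung cancer cell lines grown in 1536-well plates, dosed by pinning at five √10-spaced library-drug concentrations, and counted in MetaXpress from 4× Hoechst images after 5 days.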

4EGI-1 = compound: O=C(O)C(Cc1ccccc1[N+](=O)[O-])=NNc1nc(-c2ccc(Cl)c(Cl)c2)cs1 (mixture of isomers) [4EGI-1]; test: as above
In short: as §1

NCI-H2347
relative viability (XMD8-85; 0.08 µM): 1.03 | relative viability (XMD8-85; 0.253 µM): 0.973 | relative viability (XMD8-85; 0.8 µM): 1.04 | relative viability (XMD8-85; 2.53 µM): 1.03 | relative viability (XMD8-85; 8 µM): 0.809 | relative viability (4EGI-1; 0.5 µM): 1.14 | relative viability (4EGI-1; 1.581 µM): 0.965 | relative viability (4EGI-1; 5 µM): 1.02 | relative viability (4EGI-1; 15.81 µM): 1.03 | relative viability (4EGI-1; 50 µM): 0.823

NCI-H1437
relative viability (XMD8-85; 0.08 µM): 1 | relative viability (XMD8-85; 0.253 µM): 1.01 | relative viability (XMD8-85; 0.8 µM): 1.01 | relative viability (XMD8-85; 2.53 µM): 0.99 | relative viability (XMD8-85; 8 µM): 0.747 | relative viability (4EGI-1; 0.5 µM): 1.04 | relative viability (4EGI-1; 1.581 µM): 0.969 | relative viability (4EGI-1; 5 µM): 0.947 | relative viability (4EGI-1; 15.81 µM): 0.592 | relative viability (4EGI-1; 50 µM): 0.326

NCI-H1623
relative viability (XMD8-85; 0.08 µM): 0.906 | relative viability (XMD8-85; 0.253 µM): 0.891 | relative viability (XMD8-85; 0.8 µM): 0.88 | relative viability (XMD8-85; 2.53 µM): 0.986 | relative viability (XMD8-85; 8 µM): 0.833 | relative viability (4EGI-1; 0.5 µM): 1.17 | relative viability (4EGI-1; 1.581 µM): 0.85 | relative viability (4EGI-1; 5 µM): 1.07 | relative viability (4EGI-1; 15.81 µM): 0.783 | relative viability (4EGI-1; 50 µM): 0.843

NCI-H2126
relative viability (XMD8-85; 0.08 µM): 0.96 | relative viability (XMD8-85; 0.253 µM): 1.02 | relative viability (XMD8-85; 0.8 µM): 1.03 | relative viability (XMD8-85; 2.53 µM): 1.11 | relative viability (XMD8-85; 8 µM): 0.821 | relative viability (4EGI-1; 0.5 µM): 1.05 | relative viability (4EGI-1; 1.581 µM): 0.937 | relative viability (4EGI-1; 5 µM): 1.05 | relative viability (4EGI-1; 15.81 µM): 0.837 | relative viability (4EGI-1; 50 µM): 0.79

NCI-H596
relative viability (XMD8-85; 0.08 µM): 0.946 | relative viability (XMD8-85; 0.253 µM): 0.942 | relative viability (XMD8-85; 0.8 µM): 1.03 | relative viability (XMD8-85; 2.53 µM): 0.987 | relative viability (XMD8-85; 8 µM): 0.696 | relative viability (4EGI-1; 0.5 µM): 1.19 | relative viability (4EGI-1; 1.581 µM): 0.788 | relative viability (4EGI-1; 5 µM): 1.14 | relative viability (4EGI-1; 15.81 µM): 0.954 | relative viability (4EGI-1; 50 µM): 0.594

NCI-H2009
relative viability (XMD8-85; 0.08 µM): 0.967 | relative viability (XMD8-85; 0.253 µM): 0.987 | relative viability (XMD8-85; 0.8 µM): 1 | relative viability (XMD8-85; 2.53 µM): 0.97 | relative viability (XMD8-85; 8 µM): 0.605 | relative viability (4EGI-1; 0.5 µM): 1.05 | relative viability (4EGI-1; 1.581 µM): 1.02 | relative viability (4EGI-1; 5 µM): 1.07 | relative viability (4EGI-1; 15.81 µM): 1.02 | relative viability (4EGI-1; 50 µM): 0.24

NCI-H2228
relative viability (XMD8-85; 0.08 µM): 0.894 | relative viability (XMD8-85; 0.253 µM): 1.06 | relative viability (XMD8-85; 0.8 µM): 1 | relative viability (XMD8-85; 2.53 µM): 0.995 | relative viability (XMD8-85; 8 µM): 0.604 | relative viability (4EGI-1; 0.5 µM): 1.26 | relative viability (4EGI-1; 1.581 µM): 1.25 | relative viability (4EGI-1; 5 µM): 0.939 | relative viability (4EGI-1; 15.81 µM): 0.951 | relative viability (4EGI-1; 50 µM): 0.294

NCI-H2085
relative viability (XMD8-85; 0.08 µM): 0.945 | relative viability (XMD8-85; 0.253 µM): 0.966 | relative viability (XMD8-85; 0.8 µM): 0.995 | relative viability (XMD8-85; 2.53 µM): 0.935 | relative viability (XMD8-85; 8 µM): 0.856 | relative viability (4EGI-1; 0.5 µM): 1.06 | relative viability (4EGI-1; 1.581 µM): 1.01 | relative viability (4EGI-1; 5 µM): 1.03 | relative viability (4EGI-1; 15.81 µM): 0.799 | relative viability (4EGI-1; 50 µM): 0.663

SW 900
relative viability (XMD8-85; 0.08 µM): 0.791 | relative viability (XMD8-85; 0.253 µM): 1.04 | relative viability (XMD8-85; 0.8 µM): 0.759 | relative viability (XMD8-85; 2.53 µM): 0.861 | relative viability (XMD8-85; 8 µM): 0.465 | relative viability (4EGI-1; 0.5 µM): 1.05 | relative viability (4EGI-1; 1.581 µM): 0.755 | relative viability (4EGI-1; 5 µM): 0.89 | relative viability (4EGI-1; 15.81 µM): 0.642 | relative viability (4EGI-1; 50 µM): 0.213

H3255
relative viability (XMD8-85; 0.08 µM): 1.1 | relative viability (XMD8-85; 0.253 µM): 0.929 | relative viability (XMD8-85; 0.8 µM): 0.882 | relative viability (XMD8-85; 2.53 µM): 0.916 | relative viability (XMD8-85; 8 µM): 0.674 | relative viability (4EGI-1; 0.5 µM): 1.1 | relative viability (4EGI-1; 1.581 µM): 0.784 | relative viability (4EGI-1; 5 µM): 1.01 | relative viability (4EGI-1; 15.81 µM): 0.801 | relative viability (4EGI-1; 50 µM): 0.981

UMC-11
relative viability (XMD8-85; 0.08 µM): 1.03 | relative viability (XMD8-85; 0.253 µM): 0.982 | relative viability (XMD8-85; 0.8 µM): 1.11 | relative viability (XMD8-85; 2.53 µM): 0.964 | relative viability (XMD8-85; 8 µM): 0.739 | relative viability (4EGI-1; 0.5 µM): 1.13 | relative viability (4EGI-1; 1.581 µM): 1.11 | relative viability (4EGI-1; 5 µM): 1.01 | relative viability (4EGI-1; 15.81 µM): 0.986 | relative viability (4EGI-1; 50 µM): 0.403

NCI-H727
relative viability (XMD8-85; 0.08 µM): 0.883 | relative viability (XMD8-85; 0.253 µM): 0.9 | relative viability (XMD8-85; 0.8 µM): 0.958 | relative viability (XMD8-85; 2.53 µM): 0.713 | relative viability (XMD8-85; 8 µM): 0.62 | relative viability (4EGI-1; 0.5 µM): 1.06 | relative viability (4EGI-1; 1.581 µM): 0.991 | relative viability (4EGI-1; 5 µM): 0.909 | relative viability (4EGI-1; 15.81 µM): 0.795 | relative viability (4EGI-1; 50 µM): 0.59

NCI-H460
relative viability (XMD8-85; 0.08 µM): 0.998 | relative viability (XMD8-85; 0.253 µM): 1.01 | relative viability (XMD8-85; 0.8 µM): 1.02 | relative viability (XMD8-85; 2.53 µM): 0.997 | relative viability (XMD8-85; 8 µM): 0.651 | relative viability (4EGI-1; 0.5 µM): 1.03 | relative viability (4EGI-1; 5 µM): 1.06 | relative viability (4EGI-1; 15.81 µM): 0.847 | relative viability (4EGI-1; 50 µM): 0.25

NCI-H1793
relative viability (XMD8-85; 0.08 µM): 0.82 | relative viability (XMD8-85; 0.253 µM): 0.906 | relative viability (XMD8-85; 0.8 µM): 0.938 | relative viability (XMD8-85; 2.53 µM): 1.2 | relative viability (XMD8-85; 8 µM): 0.825 | relative viability (4EGI-1; 0.5 µM): 1.05 | relative viability (4EGI-1; 1.581 µM): 0.95 | relative viability (4EGI-1; 5 µM): 1.31 | relative viability (4EGI-1; 15.81 µM): 0.765 | relative viability (4EGI-1; 50 µM): 0.439
